Key:
[1] = molecular target: Tyrosine-protein kinase receptor UFO (Homo sapiens) (UniProt P30530); experiment: (§1) Inhibition of recombinant full length human N-terminal GST-tagged AXL (473 to end residues) expressed in baculovirus infected Sf21 insect cells at 1 uM using biotin as substrate preincubated for 5 mins followed by substrate addition and measured after 30 to 60 mins in presence of ATP by HTRF assay relative to control
[2] = molecular target: Serine/threonine-protein kinase pim-1 (Homo sapiens) (UniProt P11309); experiment: Inhibition of recombinant full length human His-tagged PIM1 expressed in baculovirus expression system at 1 uM using biotin as substrate preincubated for 5 mins followed by substrate addition and measured after 30 to 60 mins in presence of ATP by HTRF assay relative to control
[3] = species on record: Homo sapiens; experiment: Selectivity index, ratio of IC50 for purified recombinant VEGFR2 kinase domain (unknown origin) to IC50 for purified recombinant MET kinase domain (unknown origin)
[4] = molecular target: Aurora kinase A (Homo sapiens) (UniProt O14965); experiment: Inhibition of recombinant full length human His-tagged Aurora A expressed in baculovirus expression system at 1 uM using biotin as substrate preincubated for 5 mins followed by substrate addition and measured after 30 to 60 mins in presence of ATP by HTRF assay relative to control
Aurora kinase A (Homo sapiens), sequence (O14965 whole entry, the tested form may be a part): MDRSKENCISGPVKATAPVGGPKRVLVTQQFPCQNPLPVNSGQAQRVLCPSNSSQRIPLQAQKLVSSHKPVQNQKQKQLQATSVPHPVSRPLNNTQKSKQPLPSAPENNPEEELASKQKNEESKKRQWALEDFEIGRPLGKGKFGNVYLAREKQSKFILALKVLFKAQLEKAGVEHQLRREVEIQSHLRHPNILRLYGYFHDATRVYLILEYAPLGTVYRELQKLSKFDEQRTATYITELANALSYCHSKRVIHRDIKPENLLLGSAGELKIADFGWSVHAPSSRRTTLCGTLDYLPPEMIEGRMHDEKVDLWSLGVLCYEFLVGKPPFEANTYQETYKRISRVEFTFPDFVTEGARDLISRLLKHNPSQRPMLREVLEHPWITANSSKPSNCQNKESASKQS

[5] = molecular target: High affinity nerve growth factor receptor (Homo sapiens, UniProt P04629); experiment: Inhibition of recombinant human His-tagged TRKA catalytic domain (441 to 796 residues) expressed in baculovirus expression system using biotin as substrate preincubated for 5 mins followed by substrate addition and measured after 30 to 60 mins in presence of ATP by HTRF assay
[6] = molecular target: CDK2/Cyclin A2 (Homo sapiens) (UniProt P24941+P20248); experiment: Inhibition of recombinant full length human His-tagged CDK2/Cyclin A expressed in baculovirus expression system at 1 uM using biotin as substrate preincubated for 5 mins followed by substrate addition and measured after 30 to 60 mins in presence of ATP by HTRF assay relative to control
[7] = molecular target: Vascular endothelial growth factor receptor 3 (Homo sapiens, UniProt P35916); experiment: Inhibition of recombinant human GST-tagged FLT4 catalytic domain (800 to 1297 residues) expressed in baculovirus expression system using biotin as substrate preincubated for 5 mins followed by substrate addition and measured after 30 to 60 mins in presence of ATP by HTRF assay
Vascular endothelial growth factor receptor 3, sequence (P35916 whole entry, the tested form may be a part): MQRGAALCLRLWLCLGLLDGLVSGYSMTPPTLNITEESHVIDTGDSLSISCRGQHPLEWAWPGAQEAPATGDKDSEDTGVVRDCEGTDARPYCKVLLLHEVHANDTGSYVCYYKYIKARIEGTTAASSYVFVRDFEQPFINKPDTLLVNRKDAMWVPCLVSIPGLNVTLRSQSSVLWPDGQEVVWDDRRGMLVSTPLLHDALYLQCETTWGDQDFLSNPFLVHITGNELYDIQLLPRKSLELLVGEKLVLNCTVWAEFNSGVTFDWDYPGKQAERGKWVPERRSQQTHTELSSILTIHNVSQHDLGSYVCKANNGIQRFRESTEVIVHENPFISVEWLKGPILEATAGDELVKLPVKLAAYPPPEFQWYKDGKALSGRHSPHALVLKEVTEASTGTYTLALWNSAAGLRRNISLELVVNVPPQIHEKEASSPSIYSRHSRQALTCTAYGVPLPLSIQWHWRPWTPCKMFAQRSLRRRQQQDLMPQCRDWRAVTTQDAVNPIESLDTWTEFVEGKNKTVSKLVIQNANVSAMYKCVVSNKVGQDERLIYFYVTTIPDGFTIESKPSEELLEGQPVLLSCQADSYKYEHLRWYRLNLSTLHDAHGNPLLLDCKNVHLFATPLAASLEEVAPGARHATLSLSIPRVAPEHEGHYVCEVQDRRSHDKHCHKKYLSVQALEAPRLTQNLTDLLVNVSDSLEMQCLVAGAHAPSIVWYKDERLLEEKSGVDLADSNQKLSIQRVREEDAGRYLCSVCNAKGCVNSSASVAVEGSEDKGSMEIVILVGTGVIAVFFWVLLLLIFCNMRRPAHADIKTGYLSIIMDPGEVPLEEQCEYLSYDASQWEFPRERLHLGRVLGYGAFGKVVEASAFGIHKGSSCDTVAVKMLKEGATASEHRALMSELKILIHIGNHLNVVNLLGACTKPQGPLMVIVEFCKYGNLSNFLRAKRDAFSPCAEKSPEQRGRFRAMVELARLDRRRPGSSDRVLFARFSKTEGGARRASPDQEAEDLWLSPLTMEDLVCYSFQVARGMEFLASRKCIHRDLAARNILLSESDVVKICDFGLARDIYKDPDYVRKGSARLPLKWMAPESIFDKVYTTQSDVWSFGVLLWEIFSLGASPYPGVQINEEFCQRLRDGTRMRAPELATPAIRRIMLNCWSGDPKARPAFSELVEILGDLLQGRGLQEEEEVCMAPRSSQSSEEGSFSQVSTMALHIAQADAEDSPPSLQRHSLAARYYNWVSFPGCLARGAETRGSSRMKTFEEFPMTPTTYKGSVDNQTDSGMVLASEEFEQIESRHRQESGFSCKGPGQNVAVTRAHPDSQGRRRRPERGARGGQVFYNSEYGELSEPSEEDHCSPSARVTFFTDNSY

[8] = molecular target: Inhibitor of nuclear factor kappa-B kinase subunit beta (Homo sapiens) (UniProt O14920); experiment: Inhibition of recombinant full length human GST-tagged IKBKB expressed in baculovirus expression system at 1 uM using biotin as substrate preincubated for 5 mins followed by substrate addition and measured after 30 to 60 mins in presence of ATP by HTRF assay relative to control
[9] = molecular target: Aurora kinase B (Homo sapiens) (UniProt Q96GD4); experiment: Inhibition of recombinant full length human His-tagged Aurora B expressed in baculovirus expression system at 1 uM using biotin as substrate preincubated for 5 mins followed by substrate addition and measured after 30 to 60 mins in presence of ATP by HTRF assay relative to control
Aurora kinase B (Homo sapiens), sequence (Q96GD4 whole entry): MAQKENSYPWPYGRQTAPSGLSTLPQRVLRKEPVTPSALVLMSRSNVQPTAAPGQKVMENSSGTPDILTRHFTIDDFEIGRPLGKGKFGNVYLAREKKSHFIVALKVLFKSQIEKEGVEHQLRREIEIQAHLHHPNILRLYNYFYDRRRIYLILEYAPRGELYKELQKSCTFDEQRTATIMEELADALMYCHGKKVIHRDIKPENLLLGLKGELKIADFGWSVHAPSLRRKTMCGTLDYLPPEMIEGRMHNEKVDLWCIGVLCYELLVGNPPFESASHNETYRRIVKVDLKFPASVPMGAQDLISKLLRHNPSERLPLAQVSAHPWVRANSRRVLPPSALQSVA

[10] = Clearance in Sprague-Dawley rat at 5.0 mg/kg, ig measured for 15 min to 72 hrs by LC-MS/MS analysis; assay type: ADME, organism-based; conditions: in vivo, po
[11] = Tmax in Sprague-Dawley rat at 5.0 mg/kg, ig measured for 15 min to 72 hrs by LC-MS/MS analysis; assay type: ADME, organism-based; conditions: in vivo, po
[12] = molecular target: Tyrosine-protein kinase JAK1 (Homo sapiens) (UniProt P23458); experiment: Inhibition of recombinant full length human GST-tagged JAK1 expressed in baculovirus expression system at 1 uM using biotin as substrate preincubated for 5 mins followed by substrate addition and measured after 30 to 60 mins in presence of ATP by HTRF assay relative to control
[13] = AUC (0 to infinity) in Sprague-Dawley rat at 5.0 mg/kg, ig measured for 15 min to 72 hrs by LC-MS/MS analysis; assay type: ADME, organism-based; set-up: dose 5 mg/kg, time infinity, route intragastric; conditions: in vivo, po
[14] = molecular target: Macrophage-stimulating protein receptor (Homo sapiens, UniProt Q04912); experiment: Inhibition of recombinant human GST-tagged RON expressed in baculovirus system using biotin as substrate preincubated for 5 mins followed by substrate addition and measured after 30 to 60 mins in presence of ATP by HTRF assay
[15] = molecular target: Vascular endothelial growth factor receptor 2 (Homo sapiens, UniProt P35968); experiment: Inhibition of purified recombinant VEGFR2 kinase domain (unknown origin) using biotin as substrate preincubated for 5 mins followed by substrate addition and measured after 30 to 60 mins in presence of ATP by HTRF assay
Vascular endothelial growth factor receptor 2, sequence (P35968 whole entry, the tested form may be a part): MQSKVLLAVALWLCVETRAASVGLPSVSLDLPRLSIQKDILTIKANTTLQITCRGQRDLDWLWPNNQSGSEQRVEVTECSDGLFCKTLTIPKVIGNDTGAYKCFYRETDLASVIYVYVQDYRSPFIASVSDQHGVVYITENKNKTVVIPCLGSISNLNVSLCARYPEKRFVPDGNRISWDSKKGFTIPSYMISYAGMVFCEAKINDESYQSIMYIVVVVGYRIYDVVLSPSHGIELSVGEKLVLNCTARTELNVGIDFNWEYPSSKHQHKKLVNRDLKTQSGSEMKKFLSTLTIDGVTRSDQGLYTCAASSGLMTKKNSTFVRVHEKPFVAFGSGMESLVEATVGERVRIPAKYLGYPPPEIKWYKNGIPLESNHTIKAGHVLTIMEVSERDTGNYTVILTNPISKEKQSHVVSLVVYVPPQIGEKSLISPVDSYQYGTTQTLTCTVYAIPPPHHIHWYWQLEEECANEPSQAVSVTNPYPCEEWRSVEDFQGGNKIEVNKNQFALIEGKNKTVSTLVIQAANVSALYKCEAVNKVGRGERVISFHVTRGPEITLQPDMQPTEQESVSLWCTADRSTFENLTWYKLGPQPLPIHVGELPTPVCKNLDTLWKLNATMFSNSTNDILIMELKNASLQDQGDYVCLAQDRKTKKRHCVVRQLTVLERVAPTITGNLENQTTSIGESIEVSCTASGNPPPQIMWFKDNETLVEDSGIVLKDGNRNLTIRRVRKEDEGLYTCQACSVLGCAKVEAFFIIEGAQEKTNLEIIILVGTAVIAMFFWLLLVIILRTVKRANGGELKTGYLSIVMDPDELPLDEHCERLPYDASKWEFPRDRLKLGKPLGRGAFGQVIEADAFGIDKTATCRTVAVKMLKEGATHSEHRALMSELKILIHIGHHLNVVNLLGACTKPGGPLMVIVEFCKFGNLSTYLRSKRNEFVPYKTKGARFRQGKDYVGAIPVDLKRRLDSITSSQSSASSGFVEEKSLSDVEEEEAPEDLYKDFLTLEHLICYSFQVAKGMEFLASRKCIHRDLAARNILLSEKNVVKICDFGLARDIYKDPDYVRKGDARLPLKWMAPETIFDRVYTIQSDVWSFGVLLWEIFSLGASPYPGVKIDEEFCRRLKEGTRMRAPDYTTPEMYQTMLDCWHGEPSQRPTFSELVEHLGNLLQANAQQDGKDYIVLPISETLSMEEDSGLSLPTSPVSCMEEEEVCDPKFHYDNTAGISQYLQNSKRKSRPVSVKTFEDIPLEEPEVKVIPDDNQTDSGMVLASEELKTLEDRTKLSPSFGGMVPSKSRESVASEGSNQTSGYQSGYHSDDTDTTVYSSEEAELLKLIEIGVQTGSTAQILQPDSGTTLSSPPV

[16] = molecular target: Tyrosine-protein kinase JAK3 (Homo sapiens) (UniProt P52333); experiment: Inhibition of recombinant full length human GST-tagged JAK3 expressed in baculovirus expression system at 1 uM using biotin as substrate preincubated for 5 mins followed by substrate addition and measured after 30 to 60 mins in presence of ATP by HTRF assay relative to control
[17] = tested on: MKN-45; experiment: Antiproliferative activity against human MKN45 cells at 10 uM incubated for 72 hrs by MTT assay relative to control; assay type: functional; conditions: MKN-45, 72 h
[18] = molecular target: Tyrosine-protein kinase receptor UFO (Homo sapiens, UniProt P30530); experiment: Inhibition of recombinant […] human N-terminal GST-tagged AXL (473 to end residues) expressed in baculovirus infected Sf21 insect cells using biotin as substrate preincubated for 5 mins followed by substrate addition and measured after 30 to 60 mins in presence of ATP by HTRF assay
[19] = molecular target: BDNF/NT-3 growth factors receptor (Homo sapiens, UniProt Q16620); experiment: Inhibition of recombinant human His-tagged TRKB catalytic domain (526 to 838 residues) expressed in baculovirus expression system using biotin as substrate preincubated for 5 mins followed by substrate addition and measured after 30 to 60 mins in presence of ATP by HTRF assay
BDNF/NT-3 growth factors receptor, sequence (Q16620 whole entry, the tested form may be a part): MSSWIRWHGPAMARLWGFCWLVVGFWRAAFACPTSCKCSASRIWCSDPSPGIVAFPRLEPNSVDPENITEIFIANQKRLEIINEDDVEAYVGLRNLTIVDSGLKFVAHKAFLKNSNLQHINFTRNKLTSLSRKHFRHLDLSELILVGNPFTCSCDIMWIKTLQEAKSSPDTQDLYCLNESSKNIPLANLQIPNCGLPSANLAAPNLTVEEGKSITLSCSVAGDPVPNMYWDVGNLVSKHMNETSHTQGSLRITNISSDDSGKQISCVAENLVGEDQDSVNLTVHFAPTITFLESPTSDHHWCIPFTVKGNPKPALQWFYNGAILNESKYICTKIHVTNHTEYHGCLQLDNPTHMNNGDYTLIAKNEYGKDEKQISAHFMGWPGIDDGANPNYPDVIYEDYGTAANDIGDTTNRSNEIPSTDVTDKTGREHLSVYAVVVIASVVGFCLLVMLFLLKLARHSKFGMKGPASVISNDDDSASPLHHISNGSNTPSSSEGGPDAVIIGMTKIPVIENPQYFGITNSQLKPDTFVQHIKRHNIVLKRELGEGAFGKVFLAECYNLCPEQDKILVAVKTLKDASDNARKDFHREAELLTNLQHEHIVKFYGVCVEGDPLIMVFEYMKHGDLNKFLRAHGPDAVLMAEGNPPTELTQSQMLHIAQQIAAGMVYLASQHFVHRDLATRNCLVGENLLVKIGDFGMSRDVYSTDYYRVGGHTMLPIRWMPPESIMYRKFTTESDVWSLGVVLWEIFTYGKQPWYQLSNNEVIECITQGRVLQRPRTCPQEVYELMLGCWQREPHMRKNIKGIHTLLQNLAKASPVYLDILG

[20] = molecular target: Mast/stem cell growth factor receptor Kit (Homo sapiens) (UniProt P10721); experiment: as §1, with “recombinant” for “recombinant full length”, “c-Kit (544” for “AXL (473”
[21] = molecular target: Tyrosine-protein kinase Fgr (Homo sapiens) (UniProt P09769); experiment: Inhibition of recombinant full length human His-tagged FGR expressed in baculovirus expression system at 1 uM using biotin as substrate preincubated for 5 mins followed by substrate addition and measured after 30 to 60 mins in presence of ATP by HTRF assay relative to control
[22] = molecular target: Ribosomal protein S6 kinase alpha-5 (Homo sapiens) (UniProt O75582); experiment: Inhibition of recombinant full length human GST-tagged RPS6KA5 expressed in baculovirus expression system at 1 uM using biotin as substrate preincubated for 5 mins followed by substrate addition and measured after 30 to 60 mins in presence of ATP by HTRF assay relative to control
Ribosomal protein S6 kinase alpha-5 (Homo sapiens), sequence (O75582 whole entry, looked up): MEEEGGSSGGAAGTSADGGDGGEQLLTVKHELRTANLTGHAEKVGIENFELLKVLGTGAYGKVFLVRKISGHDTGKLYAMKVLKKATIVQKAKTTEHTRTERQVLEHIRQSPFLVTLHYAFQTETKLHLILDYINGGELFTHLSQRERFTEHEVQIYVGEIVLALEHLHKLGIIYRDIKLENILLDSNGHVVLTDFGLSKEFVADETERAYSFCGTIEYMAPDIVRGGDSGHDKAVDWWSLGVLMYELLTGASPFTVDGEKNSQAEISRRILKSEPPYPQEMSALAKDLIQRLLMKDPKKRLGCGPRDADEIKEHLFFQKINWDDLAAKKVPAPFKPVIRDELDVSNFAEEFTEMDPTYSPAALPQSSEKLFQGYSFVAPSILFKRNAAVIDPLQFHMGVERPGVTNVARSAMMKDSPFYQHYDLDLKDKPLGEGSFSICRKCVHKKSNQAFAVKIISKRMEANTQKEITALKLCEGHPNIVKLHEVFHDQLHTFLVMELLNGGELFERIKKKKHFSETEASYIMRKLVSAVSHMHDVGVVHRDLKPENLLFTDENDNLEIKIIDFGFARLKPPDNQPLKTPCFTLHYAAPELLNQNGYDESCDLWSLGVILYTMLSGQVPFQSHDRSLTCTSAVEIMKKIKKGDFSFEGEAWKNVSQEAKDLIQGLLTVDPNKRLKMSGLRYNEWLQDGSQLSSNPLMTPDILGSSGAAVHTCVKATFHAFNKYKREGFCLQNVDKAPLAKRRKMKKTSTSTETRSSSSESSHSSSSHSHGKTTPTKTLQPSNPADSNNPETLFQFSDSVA

[23] = Oral bioavailability in Sprague-Dawley rat at 5.0 mg/kg, ig measured for 15 min to 72 hrs by LC-MS/MS analysis; assay type: ADME, organism-based; conditions: in vivo
[24] = molecular target: Tyrosine-protein kinase BTK (Homo sapiens) (UniProt Q06187); experiment: Inhibition of recombinant full length human His-tagged BTK expressed in baculovirus expression system at 1 uM using biotin as substrate preincubated for 5 mins followed by substrate addition and measured after 30 to 60 mins in presence of ATP by HTRF assay relative to control

inhibition [1]: > 80% | inhibition [2]: < 50% | Ratio IC50 [3]: 3230 | inhibition [4]: < 50% | IC50 [5]: 32.9 nM | inhibition [6]: < 50% | IC50 [7]: 591 nM | inhibition [8]: < 50% | inhibition [9]: < 50% | CL/F [10]: 0.333 mL/min/kg | Tmax [11]: 8.7 h | inhibition [12]: < 50% | AUC(0-inf) [13]: 233 µg·h/mL | IC50 [14]: 346 nM | IC50 [15]: 22900 nM | inhibition [16]: < 50% | IC50 [18]: 8.2 nM | IC50 [19]: 58.8 nM | inhibition [20]: < 50% | inhibition [21]: > 80% | inhibition [22]: < 50% | bioavailability [23]: 58% | inhibition [24]: < 50%
SMILES: Cn1cc(-c2ccc(F)cc2)c(=O)c2c(Nc3ccc(Oc4ccnc(NC(=O)C5CC5)c4)c(F)c3)nccc21
inhibition at 10 µM [17]: 30.9%

Reference: ChEMBL document CHEMBL4373740, “Synthesis and biological evaluation of new MET inhibitors with 1,6-naphthyridinone scaffold” (Eur J Med Chem, 2020)
